From patent US9149538B2, “Oligomer conjugates of heteropentacyclic nucleosides” (priority 2008, dated 2015)
pEC50: −log10 of the molar value. Read-outs that look alike come from different tables or passages of the source.

Legend:
in vitro = conditions: dog
[1] = tested on: Influenza A/Hong Kong/8/68; assay: microbe, parasite or virus in culture; type: cell-based, influenza type A
BVDV NADL = assay: Anti-Bovine Diarrhea Virus (surrogate Hepatitis C) cytoprotection assay (XTT) in MDBK cells; type: cell-based, Bovine Viral Diarrhea virus; conditions: inhibition of virus-induced cell killing, 100 μM high test concentration
MDBK cells = conditions: read-out: TC50, cells plus drug only, XTT

Structure (SMILES)	CC50 (in vitro; TC50, MDCK cells, cells plus drug only, XTT)	pEC50 ([1]; Influenza A virus, MDCK, MDCK/Influenza A/Hong Kong/8/68, inhibition of virus-induced cell killing, XTT, 100 μM high test concentration, read-out: EC50)	pEC50 (BVDV NADL)	CC50 (MDBK cells)	CC50 (MDCK cells)	pEC50 ([1]; read-out: EC50)	pEC50 (BVDV NADL; Bovine viral diarrhea virus isolates and strains, MDBK)	CC50 (in vitro; TC50)	CC50 (MDCK cells; dog)	pEC50 [1]	pEC50 ([1]; Influenza A virus, MDCK)
NC12CC3CC(CC(C3)C1)C2 [Amantadine, amantadine, reference compound]	> 10 µM	7.00	–	–	–	–	–	–	–	–	–
COCCOCCOCCOCCOCCN(CCOCCOCCOCCOCCOC)C(=O)c1ncn([C@@H]2O[C@H](CO)[C@@H](O)[C@H]2O)n1 [Di-mPEG5-N-Ribavirin]	–	–	< 4.00	> 100 µM	19.5 µM	5.26	–	–	–	–	–
COCCOCCOCCOCCOCCOCCOCCN(CCOCCOCCOCCOCCOCCOCCOC)C(=O)c1ncn([C@@H]2O[C@H](CO)[C@@H](O)[C@H]2O)n1 [Di-mPEG7-N-Ribavirin]	–	–	< 4.00	> 100 µM	> 100 µM	< 4.00	–	–	–	–	–
NC(=O)c1ncn([C@@H]2O[C@H](CO)[C@@H](O)[C@H]2O)n1 [Ribavirin, ribavirin, reference compound]	–	–	5.28	–	–	–	5.09	50 µM	79 µM	4.79	4.74
COCCOCCOCCNC(=N)c1ncn([C@@H]2O[C@H](CO)[C@@H](O)[C@H]2O)n1 [mPEG3-N-Ribamidine]	–	–	< 4.00	> 100 µM	> 100 µM	4.17	–	–	–	–	–
COCCOCCOCCOCCOCCNC(=O)c1ncn([C@@H]2O[C@H](CO)[C@@H](O)[C@H]2O)n1 [mPEG5-N-Ribavirin]	–	–	< 4.00	> 100 µM	> 100 µM	< 4.00	–	–	–	–	–
COCCOCCOCCOCCOCCOCCNC(=N)c1ncn([C@@H]2O[C@H](CO)[C@@H](O)[C@H]2O)n1 [mPEG6-N-Ribamidine]	–	–	< 4.00	87.6 µM	> 100 µM	< 4.00	–	–	–	–	–
COCCOCCOCCOCCOCCOCCOCCNC(=N)c1ncn([C@@H]2O[C@H](CO)[C@@H](O)[C@H]2O)n1 [mPEG7-N-Ribamidine]	–	–	< 4.00	> 100 µM	> 100 µM	< 4.00	–	–	–	–	–
